Results published in ChEMBL document CHEMBL5352382, “Synthesis and evaluation of imidazo[1,2-a]pyrazine derivatives as small molecule Gαq/11 inhibitors against uveal melanoma” (Eur J Med Chem, 2022).

Columns and labels:
[1] = Antiproliferative activity against human 921 cells assessed as reduction in cell viability measured after 72 hrs by CCK-8 method; assay type: functional, cell-based; conditions: Homo sapiens, 921, 72 h
[2] = molecular target: GNAQ/GNA11 (Homo sapiens) (UniProt P50148+P29992); assay: Inhibition of Galphaq/11 (unknown origin) expressed in CHO-M1 cells at 10 uM preincubated for 1 hr followed by carbachol stimulation for 30 mins and measured after 1 hr by IP1 accumulation based HTRF assay relative to control; assay type: cell-based; conditions: time 150.0 min
[3] = Antiproliferative activity against human MP41 cells assessed as reduction in cell viability measured after 72 hrs by CCK-8 method; assay type: functional, cell-based; conditions: MP41, 72 h

| Compound | inhibition [2] [%] | IC50 [1] [µM] | IC50 [3] [µM] |
| --- | --- | --- | --- |
| CC[C@H](C)[C@H](N)C(=O)N1CCn2cc(-c3cccc(OC(F)(F)F)c3)nc2[C@@H]1CC1CCCCC1 | 12.4 | > 40 | > 40 |
| CC[C@H](C)[C@H](N)C(=O)N1CCn2cc(-c3cc(Cl)c(Cl)c(Cl)c3)nc2[C@@H]1CC1CCCCC1 | 13.2 | 5.9 | 7.8 |
| CC[C@H](C)[C@H](N)C(=O)N1CCn2cc(-c3cccc(Cl)c3)nc2[C@@H]1CC1CCCCC1 | 26.2 | 10 | 11.2 |
| CN(C)CCN1CCn2cc(-c3ccc4c(c3)CCCC4)nc2[C@@H]1CC1CCCCC1 | 17.1 | 4.9 | 9.3 |
| CC[C@H](C)[C@H](N)C(=O)N1CCn2cc(-c3cccc(S(C)(=O)=O)c3)nc2[C@@H]1CC1CCCCC1 | 13 | > 40 | > 40 |
| CC[C@H](C)[C@H](N)C(=O)N1CCn2cc(-c3cc(Cl)cc(Cl)c3)nc2[C@@H]1CC1CCCCC1 | 12.8 | 10.1 | 10.9 |
| CC[C@H](C)[C@H](N)C(=O)N1CCn2cc(-c3cc(F)cc(Cl)c3)nc2[C@@H]1CC1CCCCC1 | 16.8 | 12.9 | 10.9 |
| CC[C@H](C)[C@H](N)CN1CCn2cc(-c3ccc4c(c3)CCCC4)nc2[C@@H]1CC1CCCCC1 | 11.9 | 4.8 | 17.4 |
| CC[C@H](C)[C@H](N)C(=O)N1CCn2cc(-c3cccc(N)c3)nc2[C@@H]1CC1CCCCC1 | 10.8 | > 40 | > 40 |
| CC[C@H](C)[C@H](N)C(=O)N1CCn2cc(-c3ccc4c(c3)CCCC4)nc2[C@H]1CC(C)C | 3.6 | 8.3 | 13.9 |
| CCC[C@H](N)CN1CCn2cc(-c3ccc4c(c3)CCCC4)nc2[C@@H]1CC1CCCCC1 | 15.9 | 2.8 | 9 |
| CC[C@H](C)[C@H](N)C(=O)N1CCn2cc(-c3ccc4c(c3)CCCC4)nc2[C@@H]1C1CCCCC1 | 10.4 | 9.3 | 8.4 |
| CC[C@H](C)[C@H](N)C(=O)N1CCn2cc(-c3cccc(C(=O)O)c3)nc2[C@@H]1CC1CCCCC1 | 8.5 | > 40 | > 40 |
| CC[C@H](C)[C@H](N)C(=O)N1CCn2cc(-c3cccc([N+](=O)[O-])c3)nc2[C@@H]1CC1CCCCC1 | 17.5 | 12.2 | 10.1 |
| CC[C@H](C)[C@H](N)C(=O)N1CCn2cc(-c3ccc4ccccc4c3)nc2[C@@H]1CC1CCCCC1 | 13.1 | 18.8 | 15.5 |
| CC[C@H](C)[C@H](N)C(=O)N1CCn2cc(-c3ccc4c(c3)OCO4)nc2[C@@H]1CC1CCCCC1 | 20.2 | 18.5 | 12.8 |

The next lines start with results.

| inhibition [2] [%] | Compound | IC50 [1] [µM] | IC50 [3] [µM] |
| --- | --- | --- | --- |
| 24.2 | CC[C@H](C)[C@H](N)C(=O)N1CCn2cc(-c3cccc(Cl)c3OC)nc2[C@@H]1CC1CCCCC1 | 11.3 | 7.9 |
| 26.6 | CC[C@H](C)[C@H](N)C(=O)N1CCn2cc(-c3ccccc3)nc2[C@@H]1CC1CCCCC1 | 10.5 | 24.1 |
| 31.9 | CC[C@H](C)[C@H](N)C(=O)N1CCn2cc(-c3ccc(C)cc3)nc2[C@@H]1CC1CCCCC1 | 9.7 | 10.9 |
| 15 | CC[C@H](C)[C@H](N)C(=O)N1CCn2cc(-c3ccccc3C)nc2[C@@H]1CC1CCCCC1 | 8.8 | 7.1 |
| 29.5 | CC[C@H](C)[C@H](N)C(=O)N1CCn2cc(-c3cccc(C)c3)nc2[C@@H]1CC1CCCCC1 | 24.3 | 6.2 |
| 24.4 | CC[C@H](C)[C@H](N)C(=O)N1CCn2cc(-c3ccccc3Cl)nc2[C@@H]1CC1CCCCC1 | 7.9 | 11.6 |
| 16.3 | CC[C@H](C)[C@H](N)C(=O)N1CCn2cc(-c3cccc(F)c3F)nc2[C@@H]1CC1CCCCC1 | 3.2 | 25.9 |
